Source: patent publication US20090012152A1, “Use of Tetramic Acid Derivatives for Controlling Insects from the Genus of the Plane Lice (Sternorrhyncha)” (Bayer CropScience Aktiengesellschaft, priority 2005, published 2009)

How the values were obtained:
Type in all cases: in vivo
Bemisia tabaci = test: Example 33: cucumbers treated against Bemisia tabaci; details: nymphs on leaves, % a.i.: imidacloprid 0.144, I-4 0.084; for Kill (%) 7 d: 7 d after first of two treatments; for Kill (%) 11 d: 11 d after first of two treatments; for Kill (%) 21 d: 21 d after first of two treatments
Description: In four replications, plots of a size of 26 m^2 with cucumbers of the cultivar “Beta alpha” are treated against Bemisia tabaci. The application is carried out using a knapsack sprayer operated with pressurized air. Here, the active compound Example (I-4) (240 SC), in a tank mix with 0.1% a.i. of rapeseed oil methyl ester (500 EW), and the commercial standard imidacloprid (200 SC) are tested at the stated application rates. Two applications are carried out, at an interval of 10 days. The application rate is 1000 l of water/ha.
Evaluation is carried out 7, 11 and 21 days after the first treatment by rating the kill of the animals (nymphs) on leaves.

Bemisia argentifolii = test: Example 35: aubergines (F 100) treated against Bemisia argentifolii; details: 7 d after last of three treatments, nymphs on leaves, % a.i.: imidacloprid 0.014, I-9, I-2, I-11 0.0144
Description: In three replications, plots of a size of 10 m^2 with aubergines of the cultivar “F 100” are treated against Bemisia argentifolii. The application is carried out using a knapsack sprayer operated with pressurized air. Here, the active compounds Example (I-9) (60 SC), Example (I-2) (60 SC) and Example (I-11) (60 SC) and the commercial standard imidacloprid (70 WG) are tested at the stated application rates. Three applications are carried out, at an interval or 7 or 8 days. The application rate is 1000 l of water/ha.
Evaluation is carried out 7 days after the last treatment by rating the kill of the nymphs on the leaves.

Aonidiella aurantii = test: Example 15: orange trees treated against Aonidiella aurantii; details: on fruits, % a.i.: Tokuthion 0.048 (once), I-9 0.0096, I-2 0.0096 (two applications)
Description: In three replications, 3-year-old orange trees of the cultivar “Midnight Valenzia” are treated against Aonidiella aurantii. Two applications are carried out at an interval of 72 days, using a motor-operated knapsack sprayer. Here, the active compounds Example (I-9) (240 SC) and Example (I-2) (240 SC) in a tank mix with 0.1% a.i. of rapeseed oil methyl ester (500 EW) at the stated application rate are tested against the standard Tokuthion (960 EC) at the stated amounts. applied once. The application rate is 4 l of water per tree.
Evaluation is carried out 130 and 176 days after the treatment by rating the kill on the fruits.

Pseudococcus citri = test: Example 26: citrus trees treated against Pseudococcus citri; details: 62 days after treatment, larvae on fruits, g a.i./ha/m crown height: Dursban 960, I-4 72
Description: In three replications, in plots of a size of about 20 m^2, citrus trees of the cultivar “Oro Nules” are treated against Pseudococcus citri. The application is carried out using a high-pressure sprayer. Here, the active compound Example (I-4) (240 SC), in a tank mix with 0.1% a.i. of rapeseed oil methyl ester (500 EW), is tested against the commercial standard Dursban (480 EC), at the stated application rates. The application rate is 2500 l of water/ha.
Evaluation is carried out 62 days after the treatment by rating the kill of the larvae on the fruits.

Aulacorthum solani = test: Example 46: head lettuce treated against Aulacorthum solani; details: nymphs on plants, g a.i./ha: endosulfan 1120, I-4 48
Description: In four replications, plots of a size of about 33 m^2 with head lettuce of the cultivar “PIC 714” are treated against Aulacorthum solani, Macrosiphum euphorbiae and Myzus persicae. The application is carried out using a tractor sprayer. Here, the active compound Example (I-4) (240 SC), in a tank mix with 0.2% a.i. of rapeseed oil methyl ester (500 EW), is tested against the commercial standard endosulfan (360 EC), at the stated application rates. The application rate is 187 l of water/ha. Two treatments are carried out, at an interval of 22 days.
Evaluation is carried out 8, 22, 30 and 40 days after the first treatment by rating the kill of the nymphs on the plants.

[1] = test system: Pseudaulacaspis prunicola; test: Example 23: Japanese apricot trees treated against Pseudaulacaspis prunicola; details: 58 days after treatment, nymphs on shoots, % a.i.: Supracide EC 0.04, I-4 0.0075
Description: In six replications, about 16-year-old Japanese apricot trees of the cultivar “Shirokag” are treated against Pseudaulacaspis prunicola. The application is carried out using a sprayer. Here, the active compound Example (I-4) (200 SC) is tested against the commercial standard Supracide EC (400 EC), at the stated application rates. The application rate is 1500 l of water/ha.
Evaluation is carried out 58 days after the treatment by rating the kill of the nymphs on the shoots.

[2] = test system: Quadraspidiotus perniciosus; test: Example 17: apple trees treated against San Jose scale louse; details: 43 days after last of two treatments, on shoots, g a.i./ha/m crown height: Dursban 223, I-4 72
Description: In three replications, four about 18-year-old apple trees of the cultivar “Red Chief” are treated against the San Jose scale louse Quadraspidiotus perniciosus. Two applications are carried out at an interval of 15 days using a motor-operated barrow-mounted sprayer. Here, the active compound Example (I-4) (240 SC) is applied in a tank mix with 0.2% a.i. of rapeseed oil methyl ester (500 EW) at the stated application rate and the commercial standard Dursban (446 EC) is applied at the stated application rate. The application rate is 1500 l of water/ha.
Evaluation is carried out 43 days after the last treatment by rating the kill on the shoots.

[3] = test system: Quadraspidiotus perniciosus; test: Example 21: almond tree treated against Quadraspidiotus perniciosus; details: on branches, per metre crown height: Dursban 2240 g/ha, I-4 110 g/ha
Description: In four replications, an about 20-year-old almond tree of the cultivar “Non-Pareil” is treated against Quadraspidiotus perniciosus. The application is carried out using a high-pressure sprayer. Here, the active compound Example (I-4) (240 SC) in a tank mix with 0.125% a.i. of methylated seed oil (1000 EC) and the commercial standard Lorsban (480 EC) are tested at the stated application rates. The amount of spray liquor is 935 l/ha.
Evaluation is carried out 21, 42 and 63 days after the treatment by rating the kill of the animals on the branches.

Structure (SMILES): O=[N+]([O-])NC1=NCCN1Cc1ccc(Cl)nc1 [imidacloprid, reference compound]
- Kill (%) 7 d (Bemisia tabaci): 89%
- Kill (%) 11 d (Bemisia tabaci): 96%
- Kill (%) 21 d (Bemisia tabaci): 96%
- Kill (%) 7 d (Bemisia argentifolii): 100%

Structure (SMILES): CCOC(=O)OC1=C(c2cc(C)ccc2Br)C(=O)NC12CCC(OC)CC2 (centres unmarked) [Example (I-2)]
- Kill (%) 7 d (Bemisia argentifolii): 100%
- Kill (%) 130 d (Aonidiella aurantii; 130 d after treatment): 52%
- Kill (%) 176 d (Aonidiella aurantii; 176 d after treatment): 76%

Structure (SMILES): CCOC(=O)OC1=C(c2cc(C)ccc2C)C(=O)NC12CCC(OC)CC2 (centres unmarked) [Example (I-4)]
- Kill (%) 62 days (Pseudococcus citri): 99%
- Kill (%) 7 d (Bemisia tabaci): 75%
- Kill (%) 11 d (Bemisia tabaci): 87%
- Kill (%) 21 d (Bemisia tabaci): 90%
- Kill (%) 8 d (Aulacorthum solani; 8 d after first of two treatments): 100%
- Kill (%) 22 d (Aulacorthum solani; 22 d after first of two treatments): 99%
- Kill (%) 30 d (Aulacorthum solani; 30 d after first of two treatments): 79%
- Kill (%) 40 d (Aulacorthum solani; 40 d after first of two treatments): 87%
- Kill (%) 58 days [1]: 92.3%
- Kill (%) [2]: 90.4%
- Kill (%) 21 d ([3]; 21 d after treatment): 84.9%
- Kill (%) 42 d ([3]; 42 d after treatment): 90%
- Kill (%) 63 d ([3]; 63 d after treatment): 94.6%
